Columns and labels:
[1] = molecular target: hGYS1 enzyme (recombinant hGYS1/GN1 protein) (Homo sapiens (Human), UniProt P13807); experiment: GYS1 coupled enzyme assay (PK/LDH); assay type: biochemical; conditions: hGYS1/GN1 50 nM, UDP-Glucose 0.8 mM, G6P 1 mM; geometric mean of at least 2 runs
[2] = system: hGYS1 enzyme / glycogen synthesis in HeLa cells; experiment: GYS1 cell based assay (glycogen synthesis, Glucose-glo); design: species or system human; conditions: Homo sapiens, 24 h incubation, 20 mM glucose, geometric mean of at least 2 runs
Summary of the method: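 HeLa cells starved 24 h in medium containing only 1× Glutamax were plated onto compound in medium with 20 mM glucose (1% DMSO final) for 24 h, 37 °C, 5% CO2. Acid lysates were Tris-quenched, glucoamylase-digested (pH 5.3, 1 h, 37 °C) and read by Glucose-glo luminescence. IC50 came from Hill fits, as geometric mean of ≥2 runs.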

[3] = molecular target: hGYS2 enzyme (recombinant hGYS2/GN1 protein) (Homo sapiens (Human), UniProt P54840); experiment: GYS2 coupled enzyme assay (PK/LDH); assay type: biochemical; conditions: geometric mean of at least 2 assay runs on separate days, read-out: Avg_IC50
Summary of the method: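 Continuous PK/LDH-coupled readout of NADH loss at 340 nm over 10 min, with 200 nM hGYS2/GN1 and 2 mM each of UDP-glucose, glucose-6-phosphate and PEP, in 50 mM Tris pH 7.5 with 0.2% glycogen and 2.5% DMSO. Slopes were normalized to controls and IC50s fit to a Hill curve from duplicates.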

Sequence of hGYS1 enzyme (recombinant hGYS1/GN1 protein) (P13807 whole entry): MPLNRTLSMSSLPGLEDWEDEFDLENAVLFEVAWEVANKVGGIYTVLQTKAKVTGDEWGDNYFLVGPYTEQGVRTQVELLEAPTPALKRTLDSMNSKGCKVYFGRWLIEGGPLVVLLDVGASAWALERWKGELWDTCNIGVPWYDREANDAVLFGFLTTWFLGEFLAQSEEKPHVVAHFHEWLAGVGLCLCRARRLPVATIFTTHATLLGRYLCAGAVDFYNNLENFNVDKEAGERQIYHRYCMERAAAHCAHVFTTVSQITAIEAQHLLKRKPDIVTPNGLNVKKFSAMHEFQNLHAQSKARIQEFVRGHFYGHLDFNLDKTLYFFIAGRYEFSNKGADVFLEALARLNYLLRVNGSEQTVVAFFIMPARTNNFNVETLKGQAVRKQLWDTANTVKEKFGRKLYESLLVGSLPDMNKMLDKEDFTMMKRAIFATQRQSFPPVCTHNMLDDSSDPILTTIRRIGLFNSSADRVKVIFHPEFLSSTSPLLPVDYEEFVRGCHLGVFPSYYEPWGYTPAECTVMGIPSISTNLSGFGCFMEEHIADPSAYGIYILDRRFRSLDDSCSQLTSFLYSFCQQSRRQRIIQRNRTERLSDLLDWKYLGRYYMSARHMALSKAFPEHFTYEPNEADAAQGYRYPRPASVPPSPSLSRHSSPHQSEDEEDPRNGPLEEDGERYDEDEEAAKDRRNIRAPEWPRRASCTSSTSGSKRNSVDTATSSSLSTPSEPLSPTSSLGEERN
Sequence of hGYS1 enzyme (recombinant hGYS1/GN1 protein) (P46976 whole entry partner): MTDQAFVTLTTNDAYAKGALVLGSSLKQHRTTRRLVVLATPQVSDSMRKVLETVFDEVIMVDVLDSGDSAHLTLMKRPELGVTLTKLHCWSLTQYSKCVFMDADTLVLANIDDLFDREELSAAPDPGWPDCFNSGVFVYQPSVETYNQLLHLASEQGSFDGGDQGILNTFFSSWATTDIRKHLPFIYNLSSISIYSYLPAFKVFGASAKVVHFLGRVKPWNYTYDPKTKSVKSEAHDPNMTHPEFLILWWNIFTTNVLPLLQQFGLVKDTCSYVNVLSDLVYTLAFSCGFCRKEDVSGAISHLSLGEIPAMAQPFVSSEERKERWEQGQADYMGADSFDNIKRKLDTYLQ
Sequence of hGYS2 enzyme (recombinant hGYS2/GN1 protein) (P54840 whole entry): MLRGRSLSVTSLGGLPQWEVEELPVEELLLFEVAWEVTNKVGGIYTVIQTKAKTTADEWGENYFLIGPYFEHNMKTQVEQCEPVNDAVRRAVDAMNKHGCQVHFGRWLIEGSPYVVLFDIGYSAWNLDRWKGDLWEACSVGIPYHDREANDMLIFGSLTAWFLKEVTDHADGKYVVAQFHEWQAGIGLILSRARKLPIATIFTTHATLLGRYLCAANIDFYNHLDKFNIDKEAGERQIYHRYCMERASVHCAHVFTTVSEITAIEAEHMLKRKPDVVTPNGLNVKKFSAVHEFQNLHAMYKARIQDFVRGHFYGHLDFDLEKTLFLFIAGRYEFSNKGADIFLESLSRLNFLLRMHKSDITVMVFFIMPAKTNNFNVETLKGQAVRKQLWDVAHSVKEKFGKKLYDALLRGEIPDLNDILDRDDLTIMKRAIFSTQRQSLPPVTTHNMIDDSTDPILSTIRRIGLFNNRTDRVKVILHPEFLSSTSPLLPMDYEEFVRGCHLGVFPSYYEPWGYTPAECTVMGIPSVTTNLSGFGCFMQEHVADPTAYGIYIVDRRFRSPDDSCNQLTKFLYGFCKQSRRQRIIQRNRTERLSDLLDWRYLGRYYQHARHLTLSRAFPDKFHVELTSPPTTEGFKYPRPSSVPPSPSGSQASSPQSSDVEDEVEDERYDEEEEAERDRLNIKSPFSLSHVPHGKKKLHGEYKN
Sequence of hGYS2 enzyme (recombinant hGYS2/GN1 protein) (P46976 whole entry partner): as the sequence (P46976 whole entry partner) above

IC50 [1] [µM] | IC50 ([2]; HeLa, 24 h) [µM] | IC50 [3] [µM] | SMILES | IC50 [2] [µM]
0.104 | 4.07 | > 91.8 | CC1(c2ccc([C@@H](NC(=O)[C@@H]3C[C@@H](F)CN3C(=O)COC(=O)N3CCN(CC4CC4)CC3)c3ccccc3)cc2F)CC1 [Compound 584, 2-[(2S,4R)-4-fluoro-2-{[(S)-[3-fluoro-4-(1-methylcyclopropyl)phenyl](phenyl)methyl]carbamoyl}pyrrolidin-1-yl]-2-oxoethyl 4-(cyclopropylmethyl) piperazine-1-carboxylate] | 
0.202 | 3.21 | > 100 | CC1(c2ccc([C@@H](NC(=O)[C@@H]3C[C@@H](F)CN3C(=O)COC(=O)N3CCN(CC(F)(F)F)CC3)c3ccccc3)cc2F)CC1 [Compound 585, 2-[(2S,4R)-4-fluoro-2-{[(S)-[3-fluoro-4-(1-methylcyclopropyl)phenyl](phenyl)methyl]carbamoyl}pyrrolidin-1-yl]-2-oxoethyl 4-(2,2,2-trifluoroethyl) piperazine-1-carboxylate] | 
0.036 | 0.48 | > 100 | CC1(c2ccc([C@@H](NC(=O)[C@@H]3C[C@@H](F)CN3C(=O)Cc3n[nH]c4ccccc34)c3ccccc3)nc2F)CC1 [Compound 588, (2S,4R)-4-fluoro-N-[(S)-[6-fluoro-5-(1-methylcyclopropyl)pyridin-2-yl] (phenyl)methyl]-1-[2-(1H-indazol-3-yl)acetyl]pyrrolidine-2-carboxamide] | 
0.101 | 1.42 | > 100 | CC1(c2ccc([C@@H](NC(=O)[C@@H]3C[C@@H](F)CN3C(=O)CNC(=O)N3CCOCC3)c3ccccc3)nc2F)CC1 [Compound 589, N-{2-[(2S,4R)-4-fluoro-2-{[(S)-[6-fluoro-5-(1-methylcyclopropyl)pyridin-2-yl](phenyl)methyl]carbamoyl}pyrrolidin-1-yl]-2-oxoethyl} morpholine-4-carboxamide] | 
2.55 | 23.4 | > 100 | CC1(c2ccc([C@H](NC(=O)[C@@H]3C[C@@H](F)CN3C(=O)Cc3n[nH]c4ccccc34)c3ccccc3)nc2F)CC1 [Compound 590, (2S,4R)-4-fluoro-N-[(R)-[6-fluoro-5-(1-methylcyclopropyl)pyridin-2-yl](phenyl)methyl]-1-[2-(1H-indazol-3-yl)acetyl]pyrrolidine-2-carboxamide] | 
0.032 | 0.31 | > 100 | Cn1c(CC(=O)N2C[C@H](F)C[C@H]2C(=O)N[C@@H](c2ccccc2)c2ccc(C3(C)CC3)c(F)n2)cc2ccccc21 [Compound 591, (2S,4R)-4-fluoro-N-[(S)-[6-fluoro-5-(1-methylcyclopropyl)pyridin-2-yl](phenyl)methyl]-1-[2-(1-methyl-1H-indol-2-yl)acetyl]pyrrolidine-2-carboxamide] | 
0.01 | 0.33 | > 100 | Cn1cc(CC(=O)N2C[C@H](F)C[C@H]2C(=O)N[C@@H](c2ccccc2)c2ccc(C3(C)CC3)c(F)n2)c2ccccc21 [Compound 592, (2S,4R)-4-fluoro-N-[(S)-[6-fluoro-5-(1-methylcyclopropyl)pyridin-2-yl](phenyl)methyl]-1-[2-(1-methyl-1H-indol-3-yl)acetyl]pyrrolidine-2-carboxamide] | 
0.019 | 0.28 | > 100 | Cc1nc2ccccc2n1CC(=O)N1C[C@H](F)C[C@H]1C(=O)N[C@@H](c1ccccc1)c1ccc(C2(C)CC2)c(F)n1 [Compound 593, (2S,4R)-4-fluoro-N-[(S)-[6-fluoro-5-(1-methylcyclopropyl)pyridin-2-yl](phenyl)methyl]-1-[2-(2-methyl-1H-1,3-benzodiazol-1-yl)acetyl]pyrrolidine-2-carboxamide] | 
0.05 | 0.72 | > 100 | CC1(c2ccc([C@@H](NC(=O)[C@@H]3C[C@@H](F)CN3C(=O)Cn3nnc4ccccc43)c3ccccc3)nc2F)CC1 [Compound 594, (2S,4R)-1-[2-(1H-1,2,3-benzotriazol-1-yl)acetyl]-4-fluoro-N-[(S)-[6-fluoro-5-(1-methylcyclopropyl)pyridin-2-yl](phenyl)methyl] pyrrolidine-2-carboxamide] | 
0.025 | 0.46 | > 100 | CC1(c2ccc([C@@H](NC(=O)[C@@H]3C[C@@H](F)CN3C(=O)Cn3cnc4ccccc43)c3ccccc3)nc2F)CC1 [Compound 595, (2S,4R)-1-[2-(1H-1,3-benzodiazol-1-yl)acetyl]-4-fluoro-N-[(S)-[6-fluoro-5-(1-methylcyclopropyl)pyridin-2-yl](phenyl)methyl] pyrrolidine-2-carboxamide] | 
0.02 | 0.28 | > 96.7 | Cn1nc(CC(=O)N2C[C@H](F)C[C@H]2C(=O)N[C@@H](c2ccccc2)c2ccc(C3(C)CC3)c(F)n2)c2ccccc21 [Compound 596, (2S,4R)-4-fluoro-N-[(S)-[6-fluoro-5-(1-methylcyclopropyl)pyridin-2-yl](phenyl)methyl]-1-[2-(1-methyl-1H-indazol-3-yl)acetyl]pyrrolidine-2-carboxamide] | 
0.064 | 1.32 | > 100 | CN1C(=O)C(CC(=O)N2C[C@H](F)C[C@H]2C(=O)N[C@@H](c2ccccc2)c2ccc(C3(C)CC3)c(F)n2)c2ccccc21 (stereo partly drawn) [Compound 597, (2S,4R)-4-fluoro-N-[(S)-[6-fluoro-5-(1-methylcyclopropyl)pyridin-2-yl](phenyl)methyl]-1-[2-(1-methyl-2-oxo-2,3-dihydro-1H-indol-3-yl)acetyl]pyrrolidine-2-carboxamide] | 
0.04 | 0.72 | > 100 | CC1(c2ccc([C@@H](NC(=O)[C@@H]3C[C@@H](F)CN3C(=O)Cn3c(=O)[nH]c4ccccc43)c3ccccc3)nc2F)CC1 [Compound 599, (2S,4R)-4-fluoro-N-[(S)-[6-fluoro-5-(1-methylcyclopropyl)pyridin-2-yl](phenyl)methyl]-1-[2-(2-oxo-2,3-dihydro-1H-1,3-benzodiazol-1-yl)acetyl]pyrrolidine-2-carboxamide] | 
0.036 | 0.62 | > 100 | Cn1c(=O)n(CC(=O)N2C[C@H](F)C[C@H]2C(=O)N[C@@H](c2ccccc2)c2ccc(C3(C)CC3)c(F)n2)c2ccccc21 [Compound 600, (2S,4R)-4-fluoro-N-[(S)-[6-fluoro-5-(1-methylcyclopropyl)pyridin-2-yl](phenyl)methyl]-1-[2-(3-methyl-2-oxo-2,3-dihydro-1H-1,3-benzodiazol-1-yl)acetyl]pyrrolidine-2-carboxamide] | 
0.092 | 0.76 | > 100 | Cc1cc([C@@H](NC(=O)[C@@H]2C[C@@H](F)CN2C(=O)Cc2nnc(C(F)F)o2)c2ccccc2)ncc1C(C)C [Compound 602, (2S,4R)-1-(2-(5-(difluoromethyl)-1,3,4-oxadiazol-2-yl)acetyl)-4-fluoro-N—((S)-(5-isopropyl-4-methylpyridin-2-yl)(phenyl)methyl)pyrrolidine-2-carboxamide] | 
0.04 | 0.47 | > 100 | CC(C)c1c(F)cc([C@@H](NC(=O)[C@@H]2C[C@@H](F)CN2C(=O)Cn2cnnn2)c2ccccc2)cc1F [Compound 669, (2S,4R)-N-[(S)-[3,5-difluoro-4-(propan-2-yl)phenyl](phenyl)methyl]-4-fluoro-1-[2-(1H-1,2,3,4-tetrazol-1-yl)acetyl]pyrrolidine-2-carboxamide] | 
0.071 | 0.66 | > 100 | Cc1cc([C@@H](NC(=O)[C@@H]2C[C@@H](F)CN2C(=O)Cc2cnn[nH]2)c2ccccc2)ccc1C(C)C [Compound 670, (2S,4R)-4-fluoro-N-[(S)-[3-methyl-4-(propan-2-yl)phenyl](phenyl)methyl]-1-[2-(1H-1,2,3-triazol-5-yl)acetyl]pyrrolidine-2-carboxamide] | 
0.082 | 1.22 | > 100 | CC(C)c1ccc([C@@H](NC(=O)[C@@H]2C[C@@H](F)CN2C(=O)Cc2cnn[nH]2)c2ccccc2)cc1Cl [Compound 672, (2S,4R)-N-[(S)-[3-chloro-4-(propan-2-yl)phenyl](phenyl)methyl]-4-fluoro-1-[2-(1H-1,2,3-triazol-5-yl)acetyl]pyrrolidine-2-carboxamide] | 
0.577 | 8.49 | > 100 | CC(C)c1ccc([C@@H](NC(=O)[C@@H]2C[C@@H](F)CN2C(=O)Cc2cnn[nH]2)c2ccccc2)cc1C(F)F [Compound 679, (2S,4R)-N-[(S)-[3-(difluoromethyl)-4-(propan-2-yl)phenyl](phenyl)methyl]-4-fluoro-1-[2-(1H-1,2,3-triazol-5-yl)acetyl]pyrrolidine-2-carboxamide] | 

SMILES | IC50 [1] [µM] | IC50 ([2]; HeLa, 24 h) [µM] | IC50 [3] [µM] | IC50 [2] [µM]
CC(C)c1c(F)cc([C@@H](NC(=O)[C@@H]2C[C@@H](F)CN2S(=O)(=O)Cc2cnn[nH]2)c2ccccc2)cc1F [Compound 659, (2S,4R)-1-(((1H-1,2,3-triazol-5-yl)methyl)sulfonyl)-N—((S)-(3,5-difluoro-4-isopropylphenyl)(phenyl)methyl)-4-fluoropyrrolidine-2-carboxamide] | 0.331 |  | 17.5 | 4.35

— US11814367B2, “Inhibitors of glycogen synthase 1 (GYS1) and methods of use thereof” (Maze Therapeutics, Inc., priority 2021, dated 2023)
